Test results taken from patent US9375002B2, “5-aminopyrimidine derivatives and use thereof for combating undesired plant growth” (BAYER INTELLECTUAL PROPERTY GMBH, priority 2012, dated 2016).

Legend:
Viola tricolor = assay: Post-emergence herbicidal effect; assay type: in vivo; conditions: 1280 g/ha, visual rating after about 3 weeks
Experimental: (§1) VIOTR: Viola tricolor 2. Post-Emergence Herbicidal Effect and Crop Plant Compatibility Seeds of monocotyledonous and dicotyledonous weed and crop plants are placed in sandy loam in wood-fiber pots, covered with soil and cultivated in a greenhouse under good growth conditions. 2 to 3 weeks after sowing, the test plants are treated at the one-leaf stage. The compounds according to the invention, formulated in the form of wettable powders (WP) or as emulsion concentrates (EC), are then sprayed as aqueous suspension or emulsion at a water application rate of 600 to 800 I/ha (converted) with the addition of 0.2% of wetting agent onto the green parts of the plants. After the test plants have been kept in the greenhouse under optimum growth conditions for about 3 weeks, the activity of the preparations is rated visually in comparison to untreated controls (herbicidal activity in percent (%): 100% activity=the plants have died, 0% activity=like control plants).

Abutilon theophrasti = assay: Pre-emergence herbicidal effect; assay type: in vivo; conditions: 1280 g/ha, visual assessment after 3 weeks
Source text: (§2) 1. Pre-Emergence Herbicidal Effect and Crop Plant Compatibility Seeds of monocotyledonous and dicotyledonous weed plants and crop plants are placed in wood-fiber pots in sandy loam and covered with soil. The inventive compounds, formulated in the form of wettable powders (WP) or as emulsion concentrates (EC), are then applied to the surface of the covering soil as an aqueous suspension or emulsion at a water application rate of 600 to 800 I/ha (converted) with addition of 0.2% wetting agent. After the treatment, the pots are placed in a greenhouse and kept under good growth conditions for the test plants. The damage to the test plants is assessed visually after a test period of 3 weeks by comparison with untreated controls (herbicidal activity in percent (%): 100% action=the plants have died, 0% action=like control plants). ABUTH: Abutilon theophrasti ALOMY: Alopecurus myosuroides

Alopecurus myosuroides = assay: Pre-emergence herbicidal effect; assay type: in vivo; conditions: 1280 g/ha, visual assessment after 3 weeks
Source text: as §2

Stellaria media = assay: Post-emergence herbicidal effect; assay type: in vivo; conditions: 1280 g/ha, visual rating after about 3 weeks
Experimental: as §1, with “STEME: Stellaria media VERPE: Veronica persica” for “VIOTR: Viola tricolor”

Veronica persica = assay: Post-emergence herbicidal effect; assay type: in vivo; conditions: 1280 g/ha, visual rating after about 3 weeks
Experimental: as §1, with “STEME: Stellaria media VERPE: Veronica persica” for “VIOTR: Viola tricolor”

Matricaria inodora = assay: Pre-emergence herbicidal effect; assay type: in vivo; conditions: 1280 g/ha, visual assessment after 3 weeks
Source text: as §2, with “LOLMU: Lolium multiflorum MATIN: Matricaria inodora” for “ABUTH: Abutilon theophrasti ALOMY: Alopecurus myosuroides”

Lolium multiflorum = assay: Pre-emergence herbicidal effect; assay type: in vivo; conditions: 1280 g/ha, visual assessment after 3 weeks
Source text: as §2, with “LOLMU: Lolium multiflorum MATIN: Matricaria inodora” for “ABUTH: Abutilon theophrasti ALOMY: Alopecurus myosuroides”

Amaranthus retroflexus = assay: Post-emergence herbicidal effect; assay type: in vivo; conditions: 1280 g/ha, visual rating after about 3 weeks
Experimental: as §1, with “AMARE: Amaranthus retroflexus ECHCG: Echinochloa crus-galli” for “VIOTR: Viola tricolor”

[1] = logp (HCOOH), physicochemical characterization; conditions: HCOOH

| SMILES | herbicidal activity VIOTR (Viola tricolor) [%] | herbicidal activity ABUTH (Abutilon theophrasti) [%] | herbicidal activity ALOMY (Alopecurus myosuroides) [%] | herbicidal activity STEME (Stellaria media) [%] | herbicidal activity VERPE (Veronica persica) [%] | herbicidal activity MATIN (Matricaria inodora) [%] | herbicidal activity LOLMU (Lolium multiflorum) [%] | herbicidal activity AMARE (Amaranthus retroflexus) [%] | logp (HCOOH) [1] |
| --- | --- | --- | --- | --- | --- | --- | --- | --- | --- |
| Cc1ccc2c(c1)[C@H](Nc1cnc(S(C)(=O)=O)nc1)[C@@H](C)C2 [compound 134] | 90 | 100 | 100 | 100 | 90 | 100 | 100 | 80 |  |
| CCc1ccc2c(c1)C(Nc1cnc(S(C)(=O)=O)nc1C(=O)O)CCO2 (racemic) [compound 68] | 80 | 100 | 100 |  |  | 100 | 90 |  |  |
| CCc1ccc2c(c1)C(Nc1cnc(S(C)(=O)=O)nc1)CCO2 (racemic) [compound 65] |  | 100 | 90 | 90 |  | 100 | 90 |  | wax-like; logp (HCOOH): 2.54; 1H-NMR (CDCl3, 400 MHZ, δ in ppm): 1.20 (t, 3H, |
